In US12633374B2, “Method for determining efficacy of chemotherapy treatment for a subject” (RNA Diagnostics Inc., priority 2012, dated 2026):

Legend:
tumour sample = assay: Maximal RDI score in tumour biopsies of patients on neo-adjuvant Zometa; type: in vivo, human; details: after the first cycle, FIG. 17C and 17D
Method: Biopsy samples were obtained from patients undergoing neo-adjuvant therapy with Zometa. RNA was isolated and analyzed using the Agilent Bioanalyzer. Electropherograms were analyzed using the methods 100 and 400 and the maximal RDI score was graphed for each tumour sample at each time-point.

[1] = test system: Colon adenocarcinoma cells LS174T; assay: RNA disruption in LS174T cells; type: cell-based; details: 24 hr, FIG. 20A
Method: Colon adenocarcinoma cells LS174T were incubated with Sunitinib, a receptor tyrosine kinase inhibitor. RNA was isolated from the cells and analyzed using an Agilent Bioanalyzer.
RNA was isolated from the cells and analyzed using an Agilent Bioanalyzer.

[2] = test system: A2780 ovarian cancer cells; assay: Effect of caspase inhibitor on RNA integrity changes in docetaxel-treated cells; type: cell-based, human; details: FIG. 9J
Method: The effect of a caspase inhibitor on RNA integrity changes was next assessed. Cells were treated with or without docetaxel at a concentration of 0.2 uM in the presence or absence of the caspase inhibitor Q-DEVD-OPH (Biovision Laboratories) at a concentration of 10 uM.

[3] = test system: Jurkat T leukemia cell line; details: Fimognari et al 2009; cited from earlier work
[4] = test system: A2780 ovarian cancer cells; assay: RNA disruption in drug-treated A2780 cells (Agilent Bioanalyzer electropherogram/gel); type: cell-based, human; details: for RNA electropherogram banding pattern: 24 hours at 37° C.; for Low C Area/(28S+18S) vs docetaxel dose: method 400
Method: RNA was isolated from ovarian cancer cell line A2780 cells which had been treated with 10 μM docetaxel in 50% media or 20 μM epirubicin, each in 50% media. Cells were treated with the chemotherapeutic for 24 hours at 37° C. Isolated RNA was separated by microcapillary electrophoresis using the Agilent 2100 Bioanalyzer.
Cells were plated and treated with docetaxel concentrations ranging from 0.001-40 μM for 24 to 72 hours to assess the effect on cell number, RNA content, and integrity (measured using a Bioanalyzer 2100 from Agilent Technologies, Inc.).
RNA was isolated and electrophoretically separated on an Agilent Bioanalyzer. As shown in FIG. 9D bands appeared just below the 28S (e.g. intermediate) and 18S bands (e.g. low banding region) at 0.005 uM and peaked at 0.2 uM.
A time course experiment was conducted in A2780 cells. Cells were treated for up to 72 hours with docetaxel at 0.005 uM and 0.2 uM. RNA was isolated and run on an Agilent Bioanalyzer.
Plots of the combination of features Intermediate Area/(28S+18S) and Low C Area/(28S+18S) were generated using the method 400 although method 300 may also be used.

[5] = test system: Colon adenocarcinoma cells SW480; assay: RNA disruption in SW480 cells; type: cell-based; details: 72 hr, FIG. 20C
Method: Colon adenocarcinoma cells SW480 were incubated with Epirubicin, a DNA synthesis inhibitor. RNA was isolated from the cells and analyzed using an Agilent Bioanalyzer. RNA Disruption is evident at 72 hr at […] (see FIG. 20C).

[6] = test system: A2780 ovarian cancer cells; assay: Amount of RNA per cell in A2780 cells treated with docetaxel; type: cell-based, human
Method: A2780 cells treated for up to 72 hours with docetaxel at 0.005 uM and 0.2 uM, were analyzed for the amount of RNA per cell. RNA was isolated and electophoretically separated using an Agilent Bioanalyzer.

A2780 cells = assay: Recovery Assay after docetaxel treatment; type: cell-based, human; details: 0.2 uM docetaxel up to 72 hours, washed, replated in drug-free media, FIG. 9C
Method: A Recovery Assay was next carried out to determine if A2780 cells could recover from treatment with 0.2 uM docetaxel. A2780 cells were treated with 0.2 uM docetaxel for up to 72 hours and then washed and replated in drug-free media.

[7] = test system: docetaxel-resistant A2780DXL cells; assay: RNA disruption in docetaxel-resistant A2780 cells; type: cell-based, human
Method: A docetaxel A2780 resistant cell line was made as described in Li et al., Int. J. Mol. Med 2004 14(20): 257-264.
A time course experiment was conducted. Sensitive parental and docetaxel resistant A2780 cells were treated with docetaxel for 24 hours. RNA was isolated and run on an Agilent Bioanalyzer.

xenograft tumours = assay: RNA from docetaxel-treated xenograft tumours after storage in liquid nitrogen or saline (Agilent 2100 Bioanalyzer); type: in vivo; parameters: 18S Area / 28S Area / RNA Area: unit not given here
Method: RNA isolated from xenograft tumours stored in liquid nitrogen, RNALater™ solution or left in saline for 1h, 2h, 5h and 24h to induce autocatalytic degradation was analyzed by measuring an RNA Integrity Number (RIN) using Agilent 2100 Bioanalyzer. […] Circles above the gel lanes indicate that an RIN number could be calculated (FIG. 8A). Circles encapsulated by squares indicate samples for which an RIN number could not be calculated. Control samples were untreated xenograft tumours (1-7). Treated samples (8-12) were given docetaxel. Various measurements for the data shown in FIGS. 8B-8M follow in Tables 3.1 to 3.12.

[8] = test system: A2780 ovarian cancer cells; assay: Cell counts of A2780 cells treated with docetaxel; details: up to 72 hours, FIG. 9A
Method: A2780 cells were treated for up to 72 hours with docetaxel at 0.005 uM and 0.2 uM. Cell counts were measured at each time-point.

[9] = tumour left in saline 1h, sample 9
[10] = tumour left in saline 2h, sample 10
[11] = tumour left in saline 5h, sample 11
[12] = tumour left in saline 24h, sample 12
[13] = tumour stored in liquid nitrogen, sample 8

O=P(O)(O)C(O)(Cn1ccnc1)P(=O)(O)O [Zometa]
RDI values (tumour sample): increased in some patients

CCN(CC)CCNC(=O)c1c(C)[nH]c(/C=C2\C(=O)Nc3ccc(F)cc32)c1C [Sunitinib]
concentration at which RNA Disruption is evident [1]: 54 mM

Q-DEVD-OPH
bands below the 28S and 18S bands ([2]; 0.2 uM docetaxel with or without 10 uM caspase inhibitor): detectable in the presence and absence
effect on loss of 28S and 18S bands ([2]; 10 uM inhibitor with 0.2 uM docetaxel, 72 hr): reduces the loss of 28S and 18S bands

COc1cccc2c1C(=O)c1c(O)c3c(c(O)c1C2=O)C[C@@](O)(C(=O)CO)C[C@@H]3O[C@H]1C[C@H](N)[C@H](O)[C@H](C)O1 [doxorubicin]
susceptibility of total RNA to chemical attack [3]: susceptible to chemical attack

COc1cccc2c1C(=O)c1c(O)c3c(c(O)c1C2=O)C[C@@](O)(C(=O)CO)C[C@@H]3O[C@H]1C[C@H](N)[C@@H](O)[C@H](C)O1 [epirubicin]
RNA electropherogram banding pattern ([4]; epirubicin 20 μM in 50% media, FIG. 3): intermediate bands between the 18S and 28S peaks
concentration at which RNA Disruption is evident [5]: 0.5 mM

CC(=O)O[C@@]12CO[C@@H]1C[C@H](O)[C@@]1(C)C(=O)[C@H](O)C3=C(C)[C@@H](OC(=O)[C@H](O)[C@@H](NC(=O)OC(C)(C)C)c4ccccc4)C[C@@](O)([C@@H](OC(=O)c4ccccc4)[C@H]21)C3(C)C [docetaxel]
Low C Area/(28S+18S) vs docetaxel dose ([4]; 8 hr, 24 hr, or 48 hr): Little change
docetaxel concentration at which banding below 28S and 18S peaked ([4]; 24 hours, 0 to 40 uM, FIG. 9D): 0.2 µM
docetaxel concentration at which bands appeared just below the 28S and 18S bands ([4]; 24 hours, 0 to 40 uM, FIG. 9D): 0.005 µM
docetaxel concentration at which additional bands are visible on gel ([4]; FIG. 9D, 24 hours): 0.05 µM
docetaxel concentrations giving dose and time-dependent reductions in cell number and cell RIN values while RDI increased ([4]; RDI = Intermediate Area/(28S+18S)): ≥ 0.1 µM
Low C Area/(28S+18S) vs docetaxel dose ([4]; after 72 hr): dramatic increase
Intermediate/(28S+18S) ([4]; docetaxel 0.005 uM and 0.2 uM, 24 to 72 hours, FIG. 9F): increases dramatically with time
Low banding area/(28S+18S) ([4]; docetaxel 0.005 uM and 0.2 uM, 24 to 72 hours, FIG. 9G): also increases with time
RNA banding in time course ([4]; docetaxel 0.005 uM and 0.2 uM, up to 72 hours, FIG. 9H): banding appears below the 28S and 18S bands at all time-points
RNA electropherogram banding pattern ([4]; docetaxel 10 μM in 50% media, FIG. 2): shows an intermediate peak and a peak adjacent to the 18S peak
RIN ([4]; docetaxel concentrations ≥0.005 uM): did not change significantly
docetaxel concentration at which banding appears below the 28S and 18S bands ([4]; sensitive parental cells, 24 hours, FIG. 9I): 0.005 µM
amount of RNA per cell ([6]; docetaxel 0.005 uM and 0.2 uM, up to 72 hours, FIG. 9B): increase in a time-dependent and dose-dependent manner
RNA content per cell ([6]; low docetaxel concentrations): increased per cell
resumption of cell proliferation after drug withdrawal (A2780 cells): No resumption of cell proliferation
RNA disruption and cellular RNA content ([7]; A2780DXL cells treated with docetaxel): did not result in RNA disruption or changes in cellular RNA content
RNA banding below the 28S and 18S bands ([7]; resistant cells, docetaxel 24 hours, FIG. 9I): no banding is evident
18S % of total Area (xenograft tumours; [9]): 8.3%
18S Area (xenograft tumours; [9]): 13.2
28S % of total Area (xenograft tumours; [9]): 6.4%
28S Area (xenograft tumours; [9]): 10.2
RNA Area (xenograft tumours; [9]): 158.5
RNA Concentration (xenograft tumours; [9]): 85 ng/µL
rRNA Ratio [28 s/18 s] (xenograft tumours; [9]): 0.8
18S % of total Area (xenograft tumours; [10]): 9.8%
18S Area (xenograft tumours; [10]): 27.3
28S % of total Area (xenograft tumours; [10]): 6.6%
28S Area (xenograft tumours; [10]): 18.5
RNA Area (xenograft tumours; [10]): 278.5
RNA Concentration (xenograft tumours; [10]): 150 ng/µL
RNA Integrity Number (RIN) (xenograft tumours; [10]): 6.5 (B.02.06)
RNA Ratio [28 s/18 s] (xenograft tumours; [10]): 0.7
18S % of total Area (xenograft tumours; [11]): 6.5%
18S Area (xenograft tumours; [11]): 15.4
28S % of total Area (xenograft tumours; [11]): 6.6%
28S Area (xenograft tumours; [11]): 15.4
RNA Area (xenograft tumours; [11]): 235.4
RNA Concentration (xenograft tumours; [11]): 127 ng/µL
rRNA Ratio [28 s/18 s] (xenograft tumours; [11]): 1.0
18S % of total Area (xenograft tumours; [12]): 1.1%
18S Area (xenograft tumours; [12]): 1.9
RNA Area (xenograft tumours; [12]): 168.9
RNA Concentration (xenograft tumours; [12]): 91 ng/µL
RNA Integrity Number (RIN) (xenograft tumours; [12]): 2.7 (B.02.06)
rRNA Ratio [28 s/18 s] (xenograft tumours; [12]): 0.0
18S % of total Area (xenograft tumours; [13]): 18.4%
18S Area (xenograft tumours; [13]): 46.1
28S % of total Area (xenograft tumours; [13]): 21.8%
28S Area (xenograft tumours; [13]): 54.6
RNA Area (xenograft tumours; [13]): 250.5
RNA Concentration (xenograft tumours; [13]): 135 ng/µL
RNA Integrity Number (RIN) (xenograft tumours; [13]): 9.1 (B.02.06)
rRNA Ratio [28 s/18 s] (xenograft tumours; [13]): 1.2
docetaxel concentrations at which cell numbers remained constant [8]: greater than or equal to 0.005 uM
